Where “and” joins values, the source holds several entries; their conditions need not be identical. Equal values may be shown once. Marks after values point to notes of the source that are not given here.
What was measured:
[1] = tested on: LFT, chemokine and cytokine levels and key biomarkers of inflammation; experiment: CDI-NASH-01 clinical study, serum analysis of biomarkers; assay type: in vivo, human
Text: (§1) The secondary efficacy objective was the change from baseline in fibro-inflammatory activity in the liver as assessed by cT1 (corrected T1) at week 14. cT1 is obtained by multiparametric magnetic resonance imaging of the liver and is a quantitative metric for assessing a composite of liver inflammation and fibrosis, expressed in milliseconds (msec). Additional objectives were change from baseline in LFT, chemokine and cytokine levels and key biomarkers of inflammation to week 14. In particular, change in serum cK18 and K18 by M30-M65 ELISA was assessed at week 14.

[2] = tested on: NSG mice fed a high fat NASH-inducing diet; experiment: Humanized NSG mice on high fat NASH-inducing diet, Oil Red O liver sections; assay type: in vivo, mouse
Procedure: 16 male were first humanized by intravenous inoculation with normal human umbilical cord blood cells. […] Mice were switched to a high fat (52%), high cholesterol (1.25%) diet. (FPC diet: fructose, palmitate, cholesterol, trans-fat; Envigo-Teklad TD.160785). […] Mice were euthanized at 16 weeks after initiation of the high fat, high cholesterol diet.
Liver sections were analyzed for indicators of NAFLD. […] Regions of interest were identified in micrographs and digitized using an Aperio AT2 slide scanner (Leica Biosystems), then analyzed using QuPath v0.2.01 imaging software. […] Percent positivity in IgG treated group was 9.751±1.789. […] Student's t test p=0.014. Steatosis was numerically scored following a semi-quantitative pathological standard.

[3] = molecular target: CCR5 (Homo sapiens, UniProt P51681); settings: CCR5+ cells; cited from earlier work
[4] = tested on: hepatic fat fraction; experiment: CDI-NASH-01 clinical study, MRI-PDFF; assay type: in vivo, human; settings: for MRI PDFF: change baseline to week 14; for Mean percent change from baseline PDFF: 700 mg SC weekly (n=22), baseline to week 14
Procedure: (§2) Eligible patients included adults aged between 18 to 75 years (inclusive), with evidence of phenotype nonalcoholic steatohepatitis (NASH). […] A stable body weight (±5%) was required during the 6 months prior to screening. Exclusion criteria include but were not limited to HIV, autoimmune hepatitis, excess alcohol use, viral hepatitis, and prior or pending liver transplantation. No patients in the 350 mg study were concomitantly treated with semaglutide, while 18% of patients in the placebo group were concomitantly treated with semaglutide.
(§3) There were 21 patients in cT1 analysis and 22 for PDFF analysis. One patient obtained PDFF at End of Treatment but MRI for cT1 despite repeat was not able to quality (by 3 cuts) so no results for cT1 were obtained on that patient.
The primary efficacy objective of the study was the change from baseline in hepatic fat fraction, assessed by magnetic resonance imaging-derived proton density fat fraction (MRI-PDFF) at week 14.

[5] = tested on: fibro-inflammatory activity in the liver; experiment: CDI-NASH-01 clinical study, MRI cT1; assay type: in vivo, human; settings: for Mean change cT1: baseline to week 14; for MRI cT1: change baseline to week 14
Procedure: as §2, §3, §1

[6] = tested on: NASH patients by CCR5 haplotype; experiment: CDI-NASH-01 clinical study, treatment outcome by CCR5 haplotype; assay type: in vivo, human
Text: CCR5 haplotype was investigated for 5 patients. Haplotypes with very high transcription and thus high cell surface expression of CCR5 include HHE/HHE and HHG1/HHG1. High transcription alleles when combined with a null allele delta 32 or HHG2 will default to the heterozygous allele such that HHE/HHG2 and HHG1/HHG2 would also be high transcribers for CCR5.
CCR5 transcriptional activity and disease progression can be slowed or accelerated. Surface CCR5 expression level also played a part in NASH disease progression and specific CCR5 haplotypes correlated with dose and treatment outcomes.
All patients appeared to benefit from a dose that lowered RANTES (CCL5) levels to approximately zero.

[7] = CDI-NASH-01 clinical study, safety and tolerability; assay type: in vivo, human
Text: The secondary objective of this study was to assess the safety and tolerability of leronlimab in adult patients diagnosed with NASH compared to placebo.
(See FIG. 3 and FIG. 4.) There was no grade 3 or higher drug related treatment emergent adverse event.

[8] = tested on: fibro-inflammatory activity in the liver; experiment: CDI-NASH-01 clinical study, MRI cT1; assay type: in vivo, human; settings: 350 mg SC weekly, all patients (n = 22), change baseline to week 14
[9] = tested on: CCR5-expressing cells; settings: cited from earlier work
[10] = tested on: HIV-1; settings: in vitro and hu-PBL-SCID mouse model; at concentrations that do not affect CCR5 chemokine receptor activity; cited from earlier work
[11] = tested on: serum cK18 and K18; experiment: CDI-NASH-01 clinical study, M30-M65 ELISA; assay type: in vivo, human
Text: as §1

[12] = 350 mg SC weekly, all patients (n = 22), change baseline to week 14
[13] = 350 mg SC weekly, baseline cT1 ≥ 875 (n = 14), change baseline to week 14
[14] = 350 mg SC weekly, baseline cT1 ≥ 950 (n = 8), change baseline to week 14
[15] = 350 mg, patients with baseline elevated ALT (n=8)
[16] = 700 mg, haplotypes associated with increased CCR5 expression
[17] = 350 mg SC weekly, baseline cT1 ≥ 875 (n = 14)
[18] = 350 mg SC weekly, baseline cT1 ≥ 950 (n = 8)
[19] = 700 mg group with genetic haplotypes known to over produce CCR5, post hoc analysis
[20] = 700 mg, patients with increased CCR5 cell surface levels
[21] = placebo patients concomitantly treated with semaglutide (n = 5), change baseline to week 14
[22] = placebo patients concomitantly treated with semaglutide (n = 5)

Sequence of CCR5 (P51681 whole entry): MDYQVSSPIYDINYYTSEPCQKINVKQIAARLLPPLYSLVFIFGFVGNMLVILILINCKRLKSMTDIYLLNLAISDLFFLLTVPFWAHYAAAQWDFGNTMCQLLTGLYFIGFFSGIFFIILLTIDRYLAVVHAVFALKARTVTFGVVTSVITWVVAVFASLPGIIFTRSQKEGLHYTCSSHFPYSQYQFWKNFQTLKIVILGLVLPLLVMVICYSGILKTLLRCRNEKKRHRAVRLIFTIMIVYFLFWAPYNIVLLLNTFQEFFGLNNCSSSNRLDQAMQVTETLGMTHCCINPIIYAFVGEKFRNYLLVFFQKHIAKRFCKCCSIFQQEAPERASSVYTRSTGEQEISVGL

## leronlimab: humanized IgG4 monoclonal antibody that binds to CCR5; humanized version of murine antibody PA14
[1]; [12]
  Alpha-2-Mactoglobulin s: 8.96 mg/mL
  Gamma Glutamyl Transferase (GGT) s: −1.3 U/L
[1]; [13]
  Alkaline Phosphatase: −3.16 IU/L
  Apolipoprotein A1S: 9.2 mg/dL
  Aspartate Aminotransferase (AST) s: −5.5 U/L
  CCL2 (Monocyte Chemotactic Protein-1): -95.53 pg/mL
  CCL3 (Macrophage Inflammatory Protein-1 Alpha): −7.14*** pg/mL
  CCL5 (RANTES): −7.8
  CCL11 (Eosinophil Chemotactic Protein): -15.21 pg/mL
  CCL18 (Macrophage Inflammatory Protein-4): −32.1** ng/mL
  EN RAGE (Receptor Advanced Glycation End-Products): −115.50** ng/mL
  IL-1 (Interleukin 1) Beta: 0.00 pg/mL
  IL-6 (Interleukin 6): -0.44 pg/mL
  IL-8 (Interleukin 8): −12.6*** pg/mL
  IR-IRA (Interleukin 1 Receptor Antagonist): −34.79** pg/mL
  TIMP-1 (Tissue Inhibitor Metalloproteinases 1): -17.26 ng/mL
  TNF Receptor 2 (STNFR-2): −2.0*** ng/mL
  VCAM (Vascular Cell Adnhesion Molecule): −94.2*** ng/mL
[1]; [14]
  Alkaline Phosphatase: −7.25* IU/L
  Apolipoprotein A1S: 2.3 mg/dL
  Aspartate Aminotransferase (AST) s: −13.0 U/L
  CCL2 (Monocyte Chemotactic Protein-1): -179.0 pg/mL
  CCL3 (Macrophage Inflammatory Protein-1 Alpha): −8.0*** pg/mL
  CCL5 (RANTES): −25.3
  CCL11 (Eosinophil Chemotactic Protein): -16.25 pg/mL
  CCL18 (Macrophage Inflammatory Protein-4): −48.0** ng/mL
  EN RAGE (Receptor Advanced Glycation End-Products): −169.0* ng/mL
  Gamma Glutamyl Transferase (GGT) s: −6.13 U/L
  IL-1 (Interleukin 1) Beta: 0.00 pg/mL
  IL-6 (Interleukin 6): -0.30 pg/mL
  IL-8 (Interleukin 8): −4.25** pg/mL
  IR-IRA (Interleukin 1 Receptor Antagonist): -26.25 pg/mL
  TIMP-1 (Tissue Inhibitor Metalloproteinases 1): -25.3 ng/mL
  TNF Receptor 2 (STNFR-2): −2.7*** ng/mL
  VCAM (Vascular Cell Adnhesion Molecule): −81.0* ng/mL
[1]; [15]
  ALT, mean change: −29.3 U/L
[1]; 350 mg, patients with baseline elevated ALT (n=8), baseline 83.7
  ALT, mean after treatment: 54.3 U/L
[1]; 700 mg SC weekly
  CCL2 level: balanced or increased levels
  CCL3 level: balanced or increased levels
  CCL11 level: balanced or increased levels
  CCL18 level: balanced or increased levels
[1]; [16]
  Apolipoprotein A1: Improvements
  HDL: strong increase
[2]; 2 mg i.p. twice weekly
  fatty liver development: inhibited
[2]; 2 mg i.p. twice weekly vs IgG
  presence of fat in the liver, Oil Red O stain: markedly reduced
[3]
  IC50 of CCL5-induced calcium mobilization: 45 mg/L
[4]; 350 mg SC weekly, all patients (n = 22)
  MRI PDFF: significantly reduced
[4]; [17]
  MRI PDFF: −4.37% and −4.38* %
[4]; [18]
  MRI PDFF: −9.39% and −9.27* %
[4]; [15]
  PDFF change: −18%
[4]
  Mean percent change from baseline PDFF: +3.75%
[4]; listed as Leronlimab
  Mean percent change from baseline PDFF: did not reduce
[4]; [19]
  mean percent PDFF change: −27.9%
[4]; [16]
  PDFF decrease: 28%
  steatosis: Improvements
[5]; 350 mg SC weekly, all patients
  Mean change cT1: -24.38 ms
[5]; [17]
  MRI cT1: −42.00**
[5]; [18]
  MRI cT1: −68.86**
[5]; 350 mg subgroup with baseline cT1≥875 ms
  Mean change cT1: -42.00 ms
[5]; [15]
  cT1 change: -69 ms
[5]; 700 mg SC weekly
  Mean change cT1: -2.73 ms
[5]; 700 mg SC weekly, listed as Leronlimab
  Mean change cT1: did not reduce
[5]; [19]
  mean cT1 change: -45.4 ms
[6]; 350 mg, haplotypes correlated with low to normal surface expression of CCR5
  treatment effect: benefited
[6]; 700 mg or 350 mg, haplotypes correlated with high surface expression of CCR5, greater at 700 mg
  treatment effect: positive effects
[6]; 700 mg, haplotypes correlated with low to normal surface expression of CCR5
  treatment effect: negative effects
[7]; Part 1 (700 mg) and Part 2 (350 mg)
  tolerability: generally well tolerated
[7]; Part 1 and Part 2
  grade 3 or higher drug related treatment emergent adverse event: no
[7]; not associated with discontinuation
  Injection site reaction and mild diarrhea, frequency vs placebo: occurred more frequently
[8]
  MRI cT1: significantly reduced
[9]
  CCR5 surface expression / depletion of CCR5-expressing cells: does not downregulate CCR5 surface expression or deplete CCR5-expressing cells
[10]
  HIV-1 entry and replication: potently inhibits
[11]; 350 mg group
  M65 ELISA (cK18 and K18), mean change baseline to week 14: −8.18 U/L
[11]; 350 mg group, baseline 340.55
  M65 ELISA (cK18 and K18), mean at week 14: 332.4 U/L
[11]; [16]
  CK18: statistically significant reductions
[11]; [20]
  M30: statistically significant reductions
  M65: statistically significant reductions

## semaglutide [Placebo + Semaglutide, reference compound]
[1]; [21]
  Alanine Aminotransferase (ALT) s: −3.6 U/L
  Alpha-2-Mactoglobulin s: -11.6 mg/mL
  Apolipoprotein A1 s: -4.0 mg/dL
  Aspartate Aminotransferase (AST) s: −2.8 U/L
  CCL2 (Monocyte Chemotactic Protein-1): -6.00 pg/mL
  CCL3 (Macrophage Inflammatory Protein-1 Alpha): -1.2 pg/mL
  CCL5 (RANTES): 1.2
  CCL11 (Eosinophil Chemotactic Protein): 0.20 pg/mL
  CCL18 (Macrophage Inflammatory Protein-4): 4.80 ng/mL
  High Density Lipoprotein Cholesterol (HDL): -1.0 mg/dL
  IL-6 (Interleukin 6): 0.34 pg/mL
  IR-IRA (Interleukin 1 Receptor Antagonist): 26.6 pg/mL
  TNF Receptor 2 (STNFR-2): 0.52 ng/mL
  VCAM (Vascular Cell Adnhesion Molecule): -35.6 ng/mL
  VEGF (Vascular Endothelian Growth Factor): -11.2 pg/mL
[4]; [22]
  MRI PDFF: −1.85%
[5]; [22]
  MRI cT1: −4.40

From patent US20260242490A1, “METHODS OF TREATING NAFLD AND NASH” (CytoDyn Inc., priority 2022, published 2026)
